Measurements: patent US8247211B2, “Glycopeptide antibiotics” (American Cyanamid Company, priority 2001, dated 2012)
Converted amounts (≈) assume the structure as drawn.

Tests used:
Enterococcus sp. = experiment: In vitro antibacterial evaluation: minimum inhibitory concentration (MIC), broth dilution method; type: cell-based
Outline: (§1)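 Inoculum: 5×10^5 CFU/mL. Range: 64-0.06 μg/mL. Medium: Muller-Hinton II […]; NCCLS M7-A2 broth dilution. Endpoint: lowest concentration inhibiting growth. Strains include methicillin-, penicillin- and/or vancomycin-resistant clinical isolates.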

Streptococcus sp. = experiment: as above; type: cell-based
Outline: as §1

Escherichia coli = experiment: as above; type: cell-based
Outline: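 NCCLS M7-A2 broth dilution with Mueller-Hinton II, testing 64-0.06 μg/mL antibiotic against 5×10^5 CFU/mL inocula. Test strains include recent methicillin-, penicillin- or vancomycin-resistant clinical isolates. MIC is the lowest concentration preventing growth.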

Staphylococcus sp. = experiment: as above; type: cell-based; conditions: broth dilution, 18 hours at 35° C.
Outline: as §1

[1] = test system: Staphylococcus aureus-SMITH (GC 4543); experiment: Acute lethal infection in mice (ED50); type: in vivo; conditions: female CD-1 mice, intraperitoneal challenge, intravenous dose 30 min. after infection, 7 day survival ratios
Outline: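 Median effective dose is calculated from 7-day survival ratios pooled across three separate tests. Mice (female CD-1) receive an intraperitoneal bacterial challenge in broth or hog gastric mucin, then intravenous drug 30 min later, five animals per dose level.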

[2] = broth dilution, inoculum 5×10^5 CFU/mL, 18 hours at 35° C.

## Cc1ccc(Oc2ccc(C3OCC4OC(OC5C(CO)OC(Oc6ccc(CC7NC(=O)C(C(C)c8ccccc8)NC(=O)CNC(=O)C(CO)NC(=O)C(C(O)C8CNC(=N)N8C8OC(CO)C(O)C(O)C8O)NC(=O)C(C(O)C8CNC(=N)N8)NC7=O)cc6)C(O)C5O)C(O)C(O)C4O3)cc2)cc1 (stereo not drawn) [Example 174, Cyclo[glycyl-β-methylphenylalanyl-O-[4-O-[4,6-O-[4-(4-methylphenoxy)benzylidene]hexopyranosyl]hexopyranosyl]tyrosyl-3-(2-iminoimidazolidin-4-yl)seryl-3-(3-hexopyranosyl-2-iminoimidazolidin-4-yl)serylseryl]]
Enterococcus sp.; [2]
  MIC Enterococcus avium (GC 4558): 2 µg/mL (≈ 1.34 µM)
  MIC Enterococcus faecalis (ATCC 29212): 2 µg/mL (≈ 1.34 µM)
  MIC Enterococcus faecalis (GC 2242): 2 µg/mL (≈ 1.34 µM)
  MIC Enterococcus faecalis (GC 2691): 2 µg/mL (≈ 1.34 µM)
  MIC Enterococcus faecalis (GC 3059): 2 µg/mL (≈ 1.34 µM)
  MIC Enterococcus faecalis (GC 4552): 1 µg/mL (≈ 0.671 µM)
  MIC Enterococcus faecalis (GC 4553): 1 µg/mL (≈ 0.671 µM)
  MIC Enterococcus faecalis (GC 4554): 1 µg/mL (≈ 0.671 µM)
  MIC Enterococcus faecalis (GC 6189): 2 µg/mL (≈ 1.34 µM)
  MIC Enterococcus faecium (GC 2243): 1 µg/mL (≈ 0.671 µM)
  MIC Enterococcus faecium (GC 4556): 1 µg/mL (≈ 0.671 µM)
  MIC Enterococcus faecium (GC 4557): 2 µg/mL (≈ 1.34 µM)
Enterococcus sp.; strain ATCC 29212
  MIC Enterococcus faecalis (ATCC 29212): 2 µg/mL (≈ 1.34 µM)
Enterococcus sp.; strain GC 2242
  MIC Enterococcus faecalis (GC 2242): 2 µg/mL (≈ 1.34 µM)
Enterococcus sp.; strain GC 2243
  MIC Enterococcus faecium (GC 2243): 1 µg/mL (≈ 0.671 µM)
Enterococcus sp.; strain GC 2691
  MIC Enterococcus faecalis (GC 2691): 2 µg/mL (≈ 1.34 µM)
Enterococcus sp.; strain GC 3059
  MIC Enterococcus faecalis (GC 3059): 2 µg/mL (≈ 1.34 µM)
Enterococcus sp.; strain GC 4552
  MIC Enterococcus faecalis (GC 4552): 1 µg/mL (≈ 0.671 µM)
Enterococcus sp.; strain GC 4553
  MIC Enterococcus faecalis (GC 4553): 1 µg/mL (≈ 0.671 µM)
Enterococcus sp.; strain GC 4554
  MIC Enterococcus faecalis (GC 4554): 1 µg/mL (≈ 0.671 µM)
Enterococcus sp.; strain GC 4556
  MIC Enterococcus faecium (GC 4556): 1 µg/mL (≈ 0.671 µM)
Enterococcus sp.; strain GC 4557
  MIC Enterococcus faecium (GC 4557): 2 µg/mL (≈ 1.34 µM)
Enterococcus sp.; strain GC 4558
  MIC Enterococcus avium (GC 4558): 2 µg/mL (≈ 1.34 µM)
Enterococcus sp.; strain GC 6189
  MIC Enterococcus faecalis (GC 6189): 2 µg/mL (≈ 1.34 µM)
Streptococcus sp.; [2]
  MIC Streptococcus agalactiae (GC 4564): <0.06 µg/mL
  MIC Streptococcus pneumoniae (ATCC 6301): <0.06 µg/mL
  MIC Streptococcus pneumoniae (GC 1894): <0.06 µg/mL
  MIC Streptococcus pneumoniae (GC 4565): <0.06 µg/mL
  MIC Streptococcus pyogenes (GC 4563): <0.06 µg/mL
Streptococcus sp.; strain ATCC 6301
  MIC Streptococcus pneumoniae (ATCC 6301): <0.06 µg/mL
Streptococcus sp.; strain GC 1894
  MIC Streptococcus pneumoniae (GC 1894): <0.06 µg/mL
Streptococcus sp.; strain GC 4563
  MIC Streptococcus pyogenes (GC 4563): <0.06 µg/mL
Streptococcus sp.; strain GC 4564
  MIC Streptococcus agalactiae (GC 4564): <0.06 µg/mL
Streptococcus sp.; strain GC 4565
  MIC Streptococcus pneumoniae (GC 4565): <0.06 µg/mL
Escherichia coli; strain ATCC 25922
  MIC Escherichia coli (ATCC 25922): >64 µg/mL
Escherichia coli; strain GC 4559
  MIC Escherichia coli (GC 4559): >64 µg/mL
Escherichia coli; strain GC 4560
  MIC Escherichi coli (GC 4560): 4 µg/mL (≈ 2.69 µM)
Staphylococcus sp.; 5×10^5 CFU/mL
  MIC Coagulase Negative Staphylococcus (GC 4547): 2 µg/mL (≈ 1.34 µM)
  MIC Coagulase Negative Staphylococcus (GC 4548): 0.5 µg/mL (≈ 0.336 µM)
  MIC Coagulase Negative Staphylococcus (GC 4549): 1 µg/mL (≈ 0.671 µM)
  MIC Coagulase Negative Staphylococcus (GC 4551): 1 µg/mL (≈ 0.671 µM)
  MIC Coagulase Negative Staphylococcus (GC 6257): 0.5 µg/mL (≈ 0.336 µM)
  MIC Staphylococcus aureus (ATCC 29213): 2 µg/mL (≈ 1.34 µM)
  MIC Staphylococcus aureus (GC 1131): 1 µg/mL (≈ 0.671 µM)
  MIC Staphylococcus aureus (GC 3051): 2 µg/mL (≈ 1.34 µM)
  MIC Staphylococcus aureus (GC 3053): 2 µg/mL (≈ 1.34 µM)
  MIC Staphylococcus aureus (GC 4541): 2 µg/mL (≈ 1.34 µM)
  MIC Staphylococcus aureus (GC 4542): 2 µg/mL (≈ 1.34 µM)
  MIC Staphylococcus aureus (GC 4544): 1 µg/mL (≈ 0.671 µM)
  MIC Staphylococcus aureus (GC 4545): 1 µg/mL (≈ 0.671 µM)
  MIC Staphylococcus aureus-SMITH (GC 4543): 1 µg/mL (≈ 0.671 µM)
  MIC Staphylococcus haemolyticus (GC 4546): 2 µg/mL (≈ 1.34 µM)
Staphylococcus sp.; strain ATCC 29213
  MIC Staphylococcus aureus (ATCC 29213): 2 µg/mL (≈ 1.34 µM)
Staphylococcus sp.; strain GC 1131
  MIC Staphylococcus aureus (GC 1131): 1 µg/mL (≈ 0.671 µM)
Staphylococcus sp.; strain GC 3051
  MIC Staphylococcus aureus (GC 3051): 2 µg/mL (≈ 1.34 µM)
Staphylococcus sp.; strain GC 3053
  MIC Staphylococcus aureus (GC 3053): 2 µg/mL (≈ 1.34 µM)
Staphylococcus sp.; strain GC 4541
  MIC Staphylococcus aureus (GC 4541): 2 µg/mL (≈ 1.34 µM)
Staphylococcus sp.; strain GC 4542
  MIC Staphylococcus aureus (GC 4542): 2 µg/mL (≈ 1.34 µM)
Staphylococcus sp.; strain GC 4544
  MIC Staphylococcus aureus (GC 4544): 1 µg/mL (≈ 0.671 µM)
Staphylococcus sp.; strain GC 4545
  MIC Staphylococcus aureus (GC 4545): 1 µg/mL (≈ 0.671 µM)
[1]
  median effective dose (ED50), Staphylococcus aureus-SMITH (GC 4543): 0.08 mg/kg
